Source: patent publication US20040062842A1, “Green soybeans whose color is prevented from discoloring” (priority 2002, published 2004)

Assays:
[1] = Suppression of discoloration by immersing green soybeans in aqueous solutions of anti-oxidation materials; parameters: species or system green soybean; conditions: green soybeans immersed in aqueous solutions, permeation into tissues under depressurization
Excerpt: A test for suppressing discoloration of a green color was made by immersing green soybeans in aqueous solutions of various anti-oxidation materials, such as ascorbic acid, tocopherol and carotenoids, thus causing the anti-oxidation materials to permeate into tissues under depressurization and to capture radicals inducing decomposition of chlorophyll.

[2] = Suppression of discoloration of a chlorophyll/ethanol solution preserved under illumination of light; conditions: 10° C., 17 hours, 1600 Lux; for Suppression Effect (%): 0.01 M anti-oxidation material in chlorophyll/ethanol solution (25 μg/ml), absorbance at 640 nm, relative to control sample; for effect of retaining a green color against light: addition to chlorophyll/ethanol solution
Procedure: Next, to check the effect resulting when anti-oxidation materials permeated into tissues, particularly chloroplasts, of a living body, a test for suppressing discoloration of a green color was made by preparing a chlorophyll/ethanol solution including chlorophyll, dissolving each of various anti-oxidation materials in the solution, and preserving it under illumination of light. More specifically, 4 ml of the chlorophyll/ethanol solution was prepared by adding 25 μg of chlorophyll in 1 ml of ethanol, and each anti-oxidation material, i.e., 0.01 M of ascorbic acid (aqueous solution), 0.01 M of α-tochopherol (ethanol solution), and 0.01 M of β-carotene (ethanol solution), was dissolved in the chlorophyll/ethanol solution. After enclosing each test sample, the test sample was preserved at 10° C. for 17 hours under 1600 Lux. Then, a change in absorbance of the test sample at 640 nm between before and after the preservation was measured. A higher value of the absorbance at 640 nm means a larger amount of chlorophyll. In Table 1, “control sample” represents a sample in which water was added, and “suppression effect” represents a chlorophyll reduction rate of each test sample calculated on condition that a chlorophyll reduction rate of the control sample after the preservation under illumination of light was assumed to be 100.

Compound	effect of suppressing discoloration of a green color [1]	Suppression Effect (%) [2] [%]	effect of retaining a green color against light [2]
O=C1O[C@H]([C@@H](O)CO)C(O)=C1O [Ascorbic acid aqueous solution, ascorbic acid]	hardly confirmed	0	
tocopherol	hardly confirmed		
CC1=C(/C=C/C(C)=C/C=C/C(C)=C/C=C/C=C(C)/C=C/C=C(C)/C=C/C2=C(C)CCCC2(C)C)C(C)(C)CCC1 [β-Carotene/ethanol solution, β-carotene]		56.1	apparent effect of retaining a green color against light was confirmed
Cc1c(C)c2c(c(C)c1O)CCC(C)(CCCC(C)CCCC(C)CCCC(C)C)O2 (stereo not drawn) [α-Tochopherol/ethanol solution, α-tochopherol]		52.4	apparent effect of retaining a green color against light was confirmed
